# Test results from patent US9642821B2, “MiR-182 in the diagnosis and treatment of cancer” (Dana-Farber Cancer Institute, Inc., priority 2010, dated 2017).
# Entries after “also recorded” stand apart in the source; their conditions may differ.
# Columns and labels:
# Format in all cases: cell-based
# MDA-MB231 cells = test: Single-cell gel electrophoresis (comet) assay after irradiation, MDA-MB231; settings: MDA-MB231, 18 h repair, vs control mimic
# Procedure: 21NT cells (0.35×10^6 cells/well in 6 well tissue culture plate) were transfected with 100 nM control or miR-182 antagomir expression vector (Ambion, Austin, Tex.) whereas MDA-MB231 (0.35×10^6 cells/well on 6 well plate) were transfected with 10 nM control or miR-182 mimic expression vector (Ambion, Austin, Tex.) using Lipofectamine 2000. At day 3 after transfection, cells were irradiated (0, 2, 4 and 6 Gy) and allowed to recover for 18 hours prior to analysis. The single cell comet assays was carried out according manufacturer's instructions (Trevigen, Gaithersburg, Md.). Briefly, treated or untreated cells were collected, resuspended in ice cold PBS at 10^5 cells/ml, mixed with low-melting point agarose (1:10 ratio) and spread on frosted glass slides. After the agarose solidified, the slides were placed in lysis buffer and then in alkaline solutions. […] Nuclei were visualized using epifluorescent illumination on a Zeiss microscope and images analyzed with National Institutes of Health ImageJ software (rsbweb.nih.gov/ij/). DNA damage was quantified for 70-100 cells for each experimental condition by determining the DNA in the comet tail using the software Comet Score (TriTek, Sumerduck, Va.).
# BRCA1 = BRCA1 immunoblot in MDA-MB231 cells; settings: MDA-MB231 cells overexpressing miR-182 vs miR-scr
# Procedure: In each experiment, where Western blot analysis was done, a fraction of 0.2−0.5×10^6 cells was taken out at day, 3 or 4, post-transfection. Breast cancer cell lines were collected from 6 well tissue culture plates (0.5-1×10^6 cells). Cells lysates were prepared in RIPA buffer (150 mM NaCl, 1% NP-40, 0.5% sodium deoxycholate, 0.1% SDS, 50 mM Tris, pH 8.0). Lysates of 0.1×10^6 cells of each sample plus loading buffer were loaded on 8% SDS-PAGE gels, semi-dry transferred on nitrocellulose membrane, and probed with anti-BRCA1 antibody at a 1:500 dilution (CALBIOCHEM, MS110) and anti-tubulin antibody at a 1:10,000 dilution (Sigma, Clone B-5-1-2).
# BRCA1 transcript = test: Immunoprecipitation of HA-AGO1/miRNA complex, qRT-PCR of bound transcripts, MDA-MB231; settings: MDA-MB231, HA-AGO1 IP, normalized to 5S rRNA
# Procedure: miR-182 cDNA and miR-17 cDNA was cloned from HL60 cDNA in pcDNA3.1-Puro expression vector (Invitrogen, Carlsbad, Calif.) using the following primers: […]
# MDA-MB231 cells (0.5×10^6 cells) were co-transfected with 1 μg of HA-AGO1 (pIRES-FLAG/HA vector, Addgene) and 0.5 μg of expression vector for miR-182/miR-17 or miR-scr using Lipofectamine 2000. After 2 days cells were harvested using 400 μl lysis buffer (100 mM KCl, 5 mM MgCl2, 10 mM Hepes, pH 7.0, 0.5% Nonidet P-40) containing freshly added RNase inhibitor, RNaseOUT (Invitrogen, Carlsbad, Calif.) and Protease Inhibitor Cocktail (Roche, Basel, Switzerland). After centrifugation, a 50 μl aliquot of supernatant was taken as the input for subsequent RNA extraction. The remaining supernatant was gently shaken with HA-beads (HA-probe Santa Cruz sc-7392) for 4 h at 4° C. in spin columns (Pierce Spin Columns-Screw Cap). The columns were drained, washed and the retained beads were treated with 5 U DNaseI in NT2 buffer (50 mM Tris, pH7.4, 150 mM NaCl, 1 mM MgCl2, 0.05% Nonidet P-40) for 10 minutes at 37° C., washed with NT2 buffer and then treated with Proteinase K in NT2 buffer plus 1% SDS for 30 minutes at 55° C. […] RNA was reverse transcribed (see RNA isolation) and analyzed with qPCR for enrichment of mRNA of miR-182/miR-17 predicted targets.
substance,measurement,setting,value
"miR-182: microRNA with sequence 5′ UUUGGCAAUGGUAGAACUCACACU 3′ (SEQ ID NO:1); given as mimic (Ambion) or expression vector (UUUGGCAAUGGUAGAACUCACACU; listed as RNA, chemistry not given here; listed as Homo sapiens)",residual DNA damage (unrepaired DSBs) after irradiation,MDA-MB231 cells,significantly higher residual DNA damage
same,residual DNA damage (unrepaired DSBs) after irradiation,MDA-MB231 cells; listed as 182 mimic,significantly altered
same,BRCA1 protein level,BRCA1,sharply reduced; also recorded: lower levels; also recorded: diminish BRCA1 levels; also recorded: down regulates BRCA1 protein levels
same,association of miRNA/AGO1 complex with BRCA1 transcript,BRCA1 transcript,associates selectively; also recorded: significantly enriched
